Test results taken from patent US20200062735A1, “HETEROCYCLIC AMIDES AS KINASE INHIBITORS” (GlaxoSmithKline Intellectual Property Development Limited, priority 2017, published 2020).

Key:
RIP1 = molecular target: T1, RIP1 (Homo sapiens, UniProt Q13546); test: Fluorescent polarization based binding assay (FP Binding Assay); settings: His-GST-RipK1(1-375) 10 nM, fluorescent labeled ligand 5 nM
T1 construct: His-GST-RipK1(1-375) was purified from a Baculovirus expression system; His (N); GST (N); made in house
T1 sequence (Q13546 1-375): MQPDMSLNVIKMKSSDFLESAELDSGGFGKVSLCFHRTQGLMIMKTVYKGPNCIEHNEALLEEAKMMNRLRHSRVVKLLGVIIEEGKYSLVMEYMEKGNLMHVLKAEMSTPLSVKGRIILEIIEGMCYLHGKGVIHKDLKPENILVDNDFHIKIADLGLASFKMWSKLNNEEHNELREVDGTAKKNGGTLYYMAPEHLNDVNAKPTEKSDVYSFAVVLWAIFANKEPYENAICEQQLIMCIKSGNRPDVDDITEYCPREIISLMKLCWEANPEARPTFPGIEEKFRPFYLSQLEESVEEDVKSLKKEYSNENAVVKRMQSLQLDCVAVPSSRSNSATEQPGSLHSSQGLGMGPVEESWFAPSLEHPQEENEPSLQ

H-22 = test: Syngeneic subcutaneous tumor model H-22; assay type: in vivo, mouse; settings: H-22 model; Example 6 40 mg/kg p.o. BID up to 21 days
Method: The efficacy of RIP1 inhibition was tested in 12 different murine (6-8 week old) syngeneic subcutaneous tumor models. RIP1 inhibition was tested as a single agent in all models, with anti-PD1 combination arms added to the five of the final models.
T and C are the mean tumor volume of the treated and control groups, respectively, on a given day. • 2) Tumor and plasma collection at study end for further investigation.
Cell Culture: The 12 syngeneic cell lines were maintained in vitro with different medium (indicated in Table 3) at 37° C. in an atmosphere of 5% CO2 in air. The tumor cells were routinely subcultured twice weekly. The cells in an exponential growth phase were harvested and counted for tumor inoculation.
Each mouse was inoculated subcutaneously with tumor cells in 0.1 mL of PBS for tumor development. The treatments were started when the mean tumor size reached approximately 80-120 mm^3 (around 100 mm^3).

| FP Binding Assay (pIC50) (RIP1) | Compound | Mean tumor growth inhibition (TGI) at model termination (H-22) [%] |
| --- | --- | --- |
| 8.0 | O=C(N[C@H]1CNc2cccc(F)c2NC1=O)c1nnc(Cc2ccccc2F)[nH]1 [Example 1, (S)—N-(9-Fluoro-2-oxo-2,3,4,5-tetrahydro-1H-benzo[b][1,4]diazepin-3-yl)-5-(2-fluorobenzyl)-4H-1,2,4-triazole-3-carboxamide] | – |
| 7.4 | CN1C(=O)[C@@H](NC(=O)c2n[nH]c(Cc3ccccc3F)n2)CNc2ccccc21 [Example 3, (S)-5-(2-Fluorobenzyl)-N-(1-methyl-2-oxo-2,3,4,5-tetrahydro-1H-benzo[b][1,4]diazepin-3-yl)-1H-1,2,4-triazole-3-carboxamide] | – |
| – | N#Cc1cc(N2CCC(C(=O)N3N=CC[C@H]3c3cc(F)cc(F)c3)CC2)ncn1 [Example 6, (S)-6-(4-(5-(3,5-difluorophenyl)-4,5-dihydro-1H-pyrazole-1-carbonyl)piperidin-1-yl)pyrimidine-4-carbonitrile] | 19 |
